This note sets out measurements from US20240182481A1 (Tango Therapeutics, Inc., priority 2021, published 2024).

SMILES strings stand for the structures.

In experiment [1] the test system is HCC1954 (BRCA1 WT) cell line. Nature of the experiment: Viability assay in BRCA1 WT cell line HCC1954. In kind it is cell-based. Conditions: Homo sapiens, read-out: HCC 1954 IC50 rel IC50. An excerpt:
(§1) Table 1 also indicates IC50 values in a viability assay for a non-isogenic pair of BRCA1 mutant (column 5—MDA-MB-436) and BRCA1 WT (column 6—HCC1954) cell lines. These values indicate the effect of treatment with compound on cell survival.

For another experiment, the system named is monoubiquitinated PCNA. Nature of the experiment: AlphaLISA assay measuring monoubiquitinated PCNA in MDA-MB-436. It counts as cell-based. As to conditions: Homo sapiens, read-out: Alpha LISA IC50. From the text:
Table 1 also indicates IC50 values for exemplary compounds in an AlphaLISA assay measuring monoubiquitinated PCNA in a BRCA1 mutant cell line (MDA-MB-436; column 7).
(In general: Bead proximity is the source of the signal in Alpha formats.)

The target in a further experiment is USP1-UAF1 (Homo sapiens, UniProt O94782). Nature of the experiment: Ubiquitin Rhodamine assay for USP1-UAF1 activity. It counts as biochemical. The procedure: Certain compounds of the disclosure were assessed for USP1-UAF1 activity in a Ubiquitin Rhodamine assay as described in Example 135.
Experiment [2] has as its system MDA-MB-436 (BRCA1 mutant) cell line. Description: Viability assay in BRCA1 mutant cell line MDA-MB-436. As to conditions: Homo sapiens, MDA-MB-436, viability, BRCA1 mutant MDA-MB-436; read-out: MDA-MB-436 rel IC50. It counts as cell-based.
From the text: as §1

Chain of USP1-UAF1 (O94782 whole entry): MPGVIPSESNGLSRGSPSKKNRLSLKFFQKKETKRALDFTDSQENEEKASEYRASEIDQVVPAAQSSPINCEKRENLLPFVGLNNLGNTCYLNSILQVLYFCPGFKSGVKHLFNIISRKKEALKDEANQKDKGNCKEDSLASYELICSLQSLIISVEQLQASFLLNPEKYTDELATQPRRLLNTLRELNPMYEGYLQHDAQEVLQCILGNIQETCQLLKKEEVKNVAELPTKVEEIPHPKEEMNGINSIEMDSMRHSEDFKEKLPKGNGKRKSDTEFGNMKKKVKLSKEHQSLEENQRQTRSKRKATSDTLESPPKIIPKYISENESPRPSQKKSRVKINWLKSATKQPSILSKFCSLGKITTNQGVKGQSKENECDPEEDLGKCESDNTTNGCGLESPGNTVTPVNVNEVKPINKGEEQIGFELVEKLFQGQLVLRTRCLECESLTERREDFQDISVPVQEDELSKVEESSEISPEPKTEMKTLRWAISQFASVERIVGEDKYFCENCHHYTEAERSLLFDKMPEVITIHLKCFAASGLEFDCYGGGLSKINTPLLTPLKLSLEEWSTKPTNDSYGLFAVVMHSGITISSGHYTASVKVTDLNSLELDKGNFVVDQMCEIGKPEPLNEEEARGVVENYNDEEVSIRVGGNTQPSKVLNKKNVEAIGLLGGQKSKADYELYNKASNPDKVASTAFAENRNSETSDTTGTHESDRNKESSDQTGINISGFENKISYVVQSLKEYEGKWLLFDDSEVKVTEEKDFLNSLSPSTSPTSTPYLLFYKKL
Chain of USP1-UAF1 (Q8TAF3 whole entry partner): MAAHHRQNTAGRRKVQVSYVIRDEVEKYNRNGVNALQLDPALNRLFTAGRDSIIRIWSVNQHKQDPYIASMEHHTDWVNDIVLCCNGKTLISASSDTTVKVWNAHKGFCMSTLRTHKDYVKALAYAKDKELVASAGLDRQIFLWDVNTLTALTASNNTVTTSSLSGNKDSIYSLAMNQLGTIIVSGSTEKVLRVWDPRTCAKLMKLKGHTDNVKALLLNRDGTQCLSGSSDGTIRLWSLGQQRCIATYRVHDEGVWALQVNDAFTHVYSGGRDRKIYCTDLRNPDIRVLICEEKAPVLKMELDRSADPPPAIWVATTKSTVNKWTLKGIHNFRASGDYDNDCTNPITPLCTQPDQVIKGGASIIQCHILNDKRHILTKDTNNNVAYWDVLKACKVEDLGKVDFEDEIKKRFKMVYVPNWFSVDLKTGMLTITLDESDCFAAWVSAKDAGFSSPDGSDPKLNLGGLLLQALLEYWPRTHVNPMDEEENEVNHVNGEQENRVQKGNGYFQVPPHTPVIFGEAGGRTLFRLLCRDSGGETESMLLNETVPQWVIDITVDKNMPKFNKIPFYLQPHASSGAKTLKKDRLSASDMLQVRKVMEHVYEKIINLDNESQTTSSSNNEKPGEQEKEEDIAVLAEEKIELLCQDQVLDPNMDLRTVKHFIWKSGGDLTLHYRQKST

What is called IC50 is the concentration needed to halve the response being measured. As to `CCOc1cc(C(F)(F)F)nn1-c1ccc(Cc2n[nH]c3cnc(-c4c(OC)ncnc4C4CC4)nc23)cc1` [Compound 123, 5-(4-cyclopropyl-6-methoxy-pyrimidin-5-yl)-3-[[4-[5-ethoxy-3-(trifluoromethyl)pyrazol-1-yl]phenyl]methyl]-1H-pyrazolo[4,3-d]pyrimidine], the IC50 in experiment [1] was 250 to 10000 nM; with monoubiquitinated PCNA, below 100 nM; on USP1-UAF1 it was below 30 nM; in experiment [2], below 100 nM.

Take `COc1ncnc(C#N)c1-c1ncc2[nH]cc(Cc3ccc(-c4nc(C(F)(F)F)cn4C)cc3)c2n1` [Compound 134]: the 50% inhibitory concentration (IC50) in experiment [1] is at least 10000 nM; in the experiment with monoubiquitinated PCNA, 250 to 10000 nM; against USP1-UAF1 it was 30 to 100 nM; in experiment [2], 100 to 250 nM.

Consider `COc1ncnc(C2CC2)c1-c1ncc2c(n1)c(Cc1ccc(-c3nc(C(F)(F)F)cn3C)cc1)cn2CC(F)(F)F` [Compound 125, 2-(4-cyclopropyl-6-methoxy-pyrimidin-5-yl)-7-[[4-[1-methyl-4-(trifluoromethyl)imidazol-2-yl]phenyl]methyl]-5-(2,2,2-trifluoroethyl)pyrrolo[3,2-d]pyrimidine], for which the IC50 was 250 to 10000 nM in experiment [1], below 100 nM in the experiment on monoubiquitinated PCNA, below 30 nM at USP1-UAF1 and below 100 nM in experiment [2].

Turning to `COc1ncnc(C2CC2)c1-c1ncc2[nH]nc(Cc3ccc(-c4nc(C(F)(F)F)cn4C)cc3C)c2n1` [Compound 196], the IC50 in experiment [1] was at least 10000 nM; with monoubiquitinated PCNA it was below 100 nM; on USP1-UAF1, below 30 nM; in experiment [2], below 100 nM.

On to `CN1CC(n2cc(C(F)(F)F)nc2-c2ccc(Cc3c[nH]c4cnc(-c5cccnc5OC(F)F)nc34)cc2)C1` [Compound 20, 2-[2-(difluoromethoxy)-3-pyridyl]-7-[[4-[1-(1-methylazetidin-3-yl)-4-(trifluoromethyl)imidazol-2-yl]phenyl]methyl]-5H-pyrrolo[3,2-d]pyrimidine], for which the half-inhibitory concentration (IC50) in experiment [1] was at least 10000 nM; with monoubiquitinated PCNA, below 100 nM; on USP1-UAF1, 100 to 10000 nM; in experiment [2], 100 to 250 nM.

As for `CNc1ncnc(C2CC2)c1-c1ncc2[nH]cc(Cc3ccc(-c4nc(C(F)(F)F)cn4C)cc3)c2n1` [Compound 175], the IC50 in experiment [1] was at least 10000 nM; with monoubiquitinated PCNA, 100 to 250 nM; against USP1-UAF1, 100 to 10000 nM; in experiment [2] it was 100 to 250 nM.

As for `COCCn1cc(Cc2ccc(-c3nc(C(F)(F)F)cn3C)cc2)c2nc(-c3ccccc3C(C)C)ncc21` [Compound 83, 2-(2-isopropylphenyl)-5-(2-methoxyethyl)-7-[[4-[1-methyl-4-(trifluoromethyl)imidazol-2-yl]phenyl]methyl]pyrrolo[3,2-d]pyrimidine], the IC50 in experiment [1] is at least 10000 nM; in the experiment on monoubiquitinated PCNA, below 100 nM; against USP1-UAF1, below 30 nM; in experiment [2], below 100 nM.

Regarding `COc1ncnc(C2CC2)c1-c1ncc2c(n1)c(Cc1ccc(-c3nc(C(F)(F)F)cn3C)cc1)cn2C(C)C` [Compound 91], the IC50 in experiment [1] was at least 10000 nM; with monoubiquitinated PCNA, 100 to 250 nM; on USP1-UAF1, 100 to 10000 nM; in experiment [2], 100 to 250 nM.
